32 compounds from patent publication US10604535B2, “Compounds, compositions and methods” (Denali Therapeutics Inc., priority 2016, dated 2020) can be followed below.

Some results are limits rather than exact numbers.

GST-hRIPK1 (8-327), sequence (Q13546 8-327): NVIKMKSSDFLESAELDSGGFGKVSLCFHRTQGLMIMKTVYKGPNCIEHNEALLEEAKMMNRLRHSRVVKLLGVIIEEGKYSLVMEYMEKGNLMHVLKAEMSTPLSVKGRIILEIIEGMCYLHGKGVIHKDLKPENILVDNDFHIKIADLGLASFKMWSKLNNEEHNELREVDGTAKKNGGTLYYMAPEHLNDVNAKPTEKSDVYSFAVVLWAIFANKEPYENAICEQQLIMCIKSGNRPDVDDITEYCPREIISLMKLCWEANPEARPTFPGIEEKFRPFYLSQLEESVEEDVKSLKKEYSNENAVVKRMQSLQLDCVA

This test has as its target GST-hRIPK1 (8-327) (Homo sapiens (Human), UniProt Q13546). The experiment in a line: Fluorescent Polarization Binding (FP Binding) assay.
In the case of `Cc1ncccc1Cn1cc(F)c(C(=O)N[C@@H]2CCc3nccnc3N(C)C2=O)n1` [Example 182A, (R)-4-fluoro-N-(5-methyl-6-oxo-6,7,8,9-tetrahydro-5H-pyrazino[2,3-b]azepin-7-yl)-1-((2-methylpyridin-3-yl)methyl)-1H-pyrazole-3-carboxamide], the IC50 was > 3000 nM. As to `C[C@H]1Oc2cccnc2N(C)C(=O)[C@H]1NC(=O)c1cnn(Cc2ccccc2)n1` [Example 204, 2-benzyl-N-((2R,3S)-2,5-dimethyl-4-oxo-2,3,4,5-tetrahydropyrido[3,2-b][1,4]oxazepin-3-yl)-2H-1,2,3-triazole-4-carboxamide], the IC50 was in the range of 0.1 to 1000 nM. Then `CN1C(=O)[C@H](NC(=O)c2nnc(C3(c4ccccc4)CC3)o2)CCc2cccnc21` [Example 145B, (R)—N-(9-methyl-8-oxo-6,7,8,9-tetrahydro-5H-pyrido[2,3-b]azepin-7-yl)-5-(1-phenylcyclopropyl)-1,3,4-oxadiazole-2-carboxamide], with > 3000 nM; and `Cc1cc2n(n1)CC[C@H](NC(=O)c1nnc(Cc3ccccc3)[nH]1)C(=O)N2C` [Example 129A, (S)-5-Benzyl-N-(2,4-dimethyl-5-oxo-5,6,7,8-tetrahydro-4H-pyrazolo[1,5-a][1,3]diazepin-6-yl)-4H-1,2,4-triazole-3-carboxamide], with 0.1 to 1000 nM; and `CN1C(=O)[C@H](NC(=O)c2nnc(C3(c4ccccc4)CC3)o2)CCc2nccnc21` [Example 180B, (R)—N-(5-methyl-6-oxo-6,7,8,9-tetrahydro-5H-pyrazino[2,3-b]azepin-7-yl)-5-(1-phenylcyclopropyl)-1,3,4-oxadiazole-2-carboxamide], with > 3000 nM. Then `CN1C(=O)[C@H](NC(=O)c2nnc(Cc3ccccc3)[nH]2)[C@@H]2C[C@@H]2c2nccnc21` [Example 119A, 5-benzyl-N-((7R,7aR,8aS)-5-methyl-6-oxo-5,6,7,7a,8,8a-hexahydro-cyclopropa[d]pyrazino[2,3-b]azepin-7-yl)-4H-1,2,4-triazole-3-carboxamide], with > 3000 nM; and `C[C@H]1Oc2cccnc2N(C)C(=O)[C@H]1NC(=O)c1nn(Cc2ccc(C#N)cc2)cc1F` [Example 127, 1-(4-Cyanobenzyl)-N-((2R,3S)-2,5-dimethyl-4-oxo-2,3,4,5-tetrahydropyrido[3,2-b][1,4]oxazepin-3-yl)-4-fluoro-1H-pyrazole-3-carboxamide], with 0.1 to 1000 nM; and `O=C(N[C@@H]1COc2cccnc2-n2ccnc21)c1nnc(Cc2ccccc2)[nH]1` [Example 141A, (S)-5-Benzyl-N-(6,7-dihydroimidazo[1,2-d]pyrido[3,2-b][1,4]oxazepin-7-yl)-4H-1,2,4-triazole-3-carboxamide], with > 3000 nM. As for `CN1C(=O)[C@H](NC(=O)c2nn(Cc3ccccc3)cc2F)CCc2c1cnn2C` [Example 114B, (R)-1-benzyl-N-(1,4-dimethyl-5-oxo-1,4,5,6,7,8-hexahydropyrazolo[4,3-b]azepin-6-yl)-4-fluoro-1H-pyrazole-3-carboxamide], the IC50 was > 3000 nM. Take `C[C@@H]1Oc2cccnc2N(C)C(=O)[C@H]1NC(=O)c1nnc(Cc2ccccc2)[nH]1` [Example 95, 5-benzyl-N-((2S,3S)-2,5-dimethyl-4-oxo-2,3,4,5-tetrahydropyrido[3,2-b][1,4]oxazepin-3-yl)-4H-1,2,4-triazole-3-carboxamide]: the IC50 was > 3000 nM. With `CN1C(=O)[C@@H](NC(=O)c2cc(C#N)n(Cc3ccc(F)cc3)n2)COc2cccnc21` [Example 159, (S)-5-cyano-1-(4-fluorobenzyl)-N-(5-methyl-4-oxo-2,3,4,5-tetrahydropyrido[3,2-b][1,4]oxazepin-3-yl)-1H-pyrazole-3-carboxamide], the IC50 is 0.1 to 1000 nM.

Turning to `CN1C(=O)[C@H](NC(=O)c2nn(Cc3ccc(F)cc3)cc2F)[C@@H]2C[C@@H]2c2cccnc21` [Example 156A, 4-fluoro-1-(4-fluorobenzyl)-N-((1aR,2R,8bS)-4-methyl-3-oxo-1,1a,2,3,4,8b-hexahydrocyclopropa[d]pyrido[2,3-b]azepin-2-yl)-1H-pyrazole-3-carboxamide], the IC50 was > 3000 nM.

`Cn1cc2c(n1)CC[C@H](NC(=O)c1nnc(Cc3ccccc3)[nH]1)C(=O)N2` [Example 104B, (S)-5-benzyl-N-(2-methyl-5-oxo-2,4,5,6,7,8-hexahydropyrazolo[4,3-b]azepin-6-yl)-4H-1,2,4-triazole-3-carboxamide] registered an IC50 of 0.1 to 1000 nM. Consider `CN1C(=O)[C@H](NC(=O)c2nnc(Cc3ccccc3)o2)C2(CC2)Oc2cccnc21` [Example 160B, (R)-5-benzyl-N-(5′-methyl-4′-oxo-4′,5′-dihydro-3′H-spiro[cyclopropane-1,2′-pyrido[3,2-b][1,4]oxazepin]-3′-yl)-1,3,4-oxadiazole-2-carboxamide], for which the IC50 is > 3000 nM.

As to `O=C(N[C@H]1C(=O)Nc2ncccc2[C@H]2C[C@H]21)c1nnc(Cc2ccccc2)[nH]1` [Example 110A, 5-benzyl-N-((1aR,2R,8bS)-3-oxo-1,1a,2,3,4,8b-hexahydrocyclopropa[d]pyrido[2,3-b]azepin-2-yl)-4H-1,2,4-triazole-3-carboxamide], the IC50 was > 3000 nM. `Cc1cnn2c1N(C)C(=O)[C@H](NC(=O)c1nnc(Cc3ccccc3)[nH]1)CC2` [Example 131B, (R)-5-Benzyl-N-(3,4-dimethyl-5-oxo-5,6,7,8-tetrahydro-4H-pyrazolo[1,5-a][1,3]diazepin-6-yl)-4H-1,2,4-triazole-3-carboxamide]: the IC50 was > 3000 nM.

For `CN1C(=O)[C@H](NC(=O)c2nnc(Cc3ccccc3)[nH]2)CCc2c1cnn2C` [Example 101A, (R)-5-benzyl-N-(1,4-dimethyl-5-oxo-1,4,5,6,7,8-hexahydropyrazolo[4,3-b]azepin-6-yl)-4H-1,2,4-triazole-3-carboxamide], the IC50 was > 3000 nM. As to `CN1C(=O)[C@@H](NC(=O)[C@H]2C[C@@H]2Cc2ccccc2)COc2ccccc21` (single isomer, unassigned) [Example 50B], the IC50 fell in the range of 1000 to 10000 nM. Regarding `Cn1ncc2c1CC[C@H](NC(=O)c1nnc(Cc3ccccc3)[nH]1)C(=O)N2` [Example 118B, (S)-5-benzyl-N-(1-methyl-5-oxo-1,4,5,6,7,8-hexahydropyrazolo[4,3-b]azepin-6-yl)-4H-1,2,4-triazole-3-carboxamide], the IC50 is 1000 to 10000 nM. On to `Cn1ncc2c1CC[C@@H](NC(=O)c1nnc(Cc3ccccc3)[nH]1)C(=O)N2` [Example 118A, (R)-5-benzyl-N-(1-methyl-5-oxo-1,4,5,6,7,8-hexahydropyrazolo[4,3-b]azepin-6-yl)-4H-1,2,4-triazole-3-carboxamide], for which the IC50 is > 3000 nM. The compound `CN1C(=O)[C@@H](NC(=O)c2nn(Cc3cnn(C)c3)cc2F)COc2cccnc21` [Example 184, (S)-4-fluoro-1-((1-methyl-1H-pyrazol-4-yl)methyl)-N-(5-methyl-4-oxo-2,3,4,5-tetrahydropyrido[3,2-b][1,4]oxazepin-3-yl)-1H-pyrazole-3-carboxamide] returned an IC50 of 0.1 to 1000 nM.

As to `Cn1cc2c(n1)CC[C@@H](NC(=O)c1nnc(Cc3ccccc3)[nH]1)C(=O)N2` [Example 104A, (R)-5-benzyl-N-(2-methyl-5-oxo-2,4,5,6,7,8-hexahydropyrazolo[4,3-b]azepin-6-yl)-4H-1,2,4-triazole-3-carboxamide], the half-inhibitory concentration (IC50) was > 3000 nM. As to `CN1C(=O)[C@H](NC(=O)c2nn(Cc3ccccc3F)cc2F)CCc2nccnc21` [Example 178B, (R)-4-fluoro-1-(2-fluorobenzyl)-N-(5-methyl-6-oxo-6,7,8,9-tetrahydro-5H-pyrazino[2,3-b]azepin-7-yl)-1H-pyrazole-3-carboxamide], the IC50 is > 3000 nM. Turning to `O=C(N[C@@H]1C(=O)Nc2c(F)cc(F)cc2[C@H]2C[C@@H]12)c1nnc(Cc2ccccc2)[nH]1` [Example 176, 5-benzyl-N-((1aR,2S,8bS)-5,7-difluoro-3-oxo-1,1a,2,3,4,8b-hexahydrobenzo[b]cyclopropa[d]azepin-2-yl)-4H-1,2,4-triazole-3-carboxamide], the IC50 is 0.1 to 1000 nM. Turning to `N#Cc1cccc(Cc2nnc(C(=O)N[C@H]3C(=O)Nc4c(F)cc(F)cc4[C@H]4C[C@H]43)[nH]2)c1` [Example 181A, 5-(3-cyanobenzyl)-N-((1aR,2R,8bS)-5,7-difluoro-3-oxo-1,1a,2,3,4,8b-hexahydrobenzo[b]cyclopropa[d]azepin-2-yl)-4H-1,2,4-triazole-3-carboxamide], the IC50 was > 3000 nM. As for `CN1C(=O)[C@@H](NC(=O)[C@@H]2C[C@H]2Cc2ccccc2)COc2ccccc21` (single isomer, unassigned) [Example 50A], the IC50 lay in the range of 0.1 to 1000 nM.

Compound `O=C(N[C@H]1COc2cccnc2NC1=O)c1nnc(C2CCc3ccccc32)[nH]1` (single isomer, unassigned) [Example 102A] had an IC50 of 1000 to 10000 nM.

On to `C[C@H]1Oc2cccnc2N(C)C(=O)[C@H]1NC(=O)c1ccn(Cc2ccccc2)n1` [Example 155, 1-Benzyl-N-((2R,3S)-2,5-dimethyl-4-oxo-2,3,4,5-tetrahydropyrido[3,2-b][1,4]oxazepin-3-yl)-1H-pyrazole-3-carboxamide], for which the IC50 fell in the range of 0.1 to 1000 nM.

On to `CN1C(=O)[C@@H](NC(=O)c2cc(Oc3ccc(F)cc3F)ccn2)CCc2cccnc21` [Example 121B, (S)-4-(2,4-difluorophenoxy)-N-(9-methyl-8-oxo-6,7,8,9-tetrahydro-5H-pyrido[2,3-b]azepin-7-yl)picolinamide], for which the IC50 lay in the range of 0.1 to 1000 nM. Take `CN1C(=O)[C@@H](NC(=O)c2nnc(C3(c4ccccc4)CC3)[nH]2)COc2cccnc21` [Example 106, (S)—N-(5-methyl-4-oxo-2,3,4,5-tetrahydropyrido[3,2-b][1,4]oxazepin-3-yl)-5-(1-phenylcyclopropyl)-4H-1,2,4-triazole-3-carboxamide]: the IC50 is 0.1 to 1000 nM. As for `O=C(NC1COc2cccnc2-n2ccnc21)c1nn(Cc2ccccc2)cc1F` (stereo in doubt) [Example 154A, (R)-1-benzyl-N-(6,7-dihydroimidazo[1,2-d]pyrido[3,2-b][1,4]oxazepin-7-yl)-4-fluoro-1H-pyrazole-3-carboxamide], the IC50 is > 3000 nM. Then `CN1C(=O)[C@@H](NC(=O)c2ncc(S(=O)(=O)c3ccccc3)s2)COc2ccccc21` [Example 49, (S)—N-(5-methyl-4-oxo-2,3,4,5-tetrahydrobenzo[b][1,4]oxazepin-3-yl)-5-(phenylsulfonyl)thiazole-2-carboxamide], with 1000 to 10000 nM.
